Assay results as given in the NIST ThermoML archive (doi:10.1007/s10765-009-0610-6).
± gives the expanded uncertainty stated by the source.

Settings: Liquid; for speed of sound: Pulse-echo method; for mass density: 101.33 kPa, Vibrating tube method

Compound `BrCCCCCBr` [1,5-dibromopentane] has a speed of sound (292.38 K, 100 kPa) of 1149.5 ± 1.2 m/s, a speed of sound (292.47 K, 91200 kPa) of 1354 ± 2.4 m/s and a speed of sound (292.48 K, 30400 kPa) of 1226.2 ± 2.3 m/s. It also gave a speed of sound (292.5 K, 45600 kPa) of 1260.8 ± 2.3 m/s, a speed of sound (292.52 K, 60800 kPa) of 1293.4 ± 2.4 m/s and a speed of sound (292.53 K, 15210 kPa) of 1189.1 ± 2.3 m/s. It also gave a speed of sound (292.57 K, 101320 kPa) of 1372.2 ± 2.4 m/s, a speed of sound (292.59 K, 76010 kPa) of 1324.4 ± 2.4 m/s and a speed of sound (298 K, 60800 kPa) of 1281.2 ± 2.4 m/s. For the same compound, the speed of sound (298 K, 91200 kPa) was 1342.4 ± 2.4 m/s, the speed of sound (298 K, 101330 kPa) was 1361.6 ± 2.4 m/s and the speed of sound (298.01 K, 45600 kPa) was 1248 ± 2.3 m/s. It also gave a speed of sound (298.02 K, 30410 kPa) of 1212.7 ± 2.3 m/s, a speed of sound (298.03 K, 15210 kPa) of 1174.8 ± 2.3 m/s and a speed of sound (298.05 K, 76000 kPa) of 1312.6 ± 2.4 m/s. It also gave a speed of sound (298.37 K, 100 kPa) of 1133 ± 1.2 m/s, a speed of sound (303 K, 76000 kPa) of 1302 ± 2.4 m/s and a speed of sound (303.01 K, 15200 kPa) of 1162.1 ± 2.3 m/s. It also gave a speed of sound (303.01 K, 30400 kPa) of 1200.6 ± 2.3 m/s, a speed of sound (303.01 K, 60790 kPa) of 1270 ± 2.4 m/s and a speed of sound (303.01 K, 91200 kPa) of 1331.8 ± 2.4 m/s. It also gave a speed of sound (303.01 K, 101340 kPa) of 1350.7 ± 2.4 m/s, a speed of sound (303.02 K, 45600 kPa) of 1236.5 ± 2.3 m/s and a speed of sound (303.4 K, 100 kPa) of 1119.3 ± 1.2 m/s. For the same compound, the speed of sound (308.03 K, 15210 kPa) was 1148.7 ± 2.3 m/s, the speed of sound (308.03 K, 30410 kPa) was 1187.7 ± 2.3 m/s and the speed of sound (308.03 K, 45590 kPa) was 1224 ± 2.3 m/s. For the same compound, the speed of sound (308.05 K, 101330 kPa) was 1340 ± 2.4 m/s, the speed of sound (308.06 K, 60790 kPa) was 1257.9 ± 2.4 m/s and the speed of sound (308.06 K, 76000 kPa) was 1290.1 ± 2.4 m/s. For the same compound, the speed of sound (308.06 K, 91200 kPa) was 1320.5 ± 2.4 m/s, the speed of sound (308.38 K, 100 kPa) was 1105.8 ± 1.2 m/s and the speed of sound (313.14 K, 76030 kPa) was 1279.3 ± 2.4 m/s. It also gave a speed of sound (313.16 K, 91210 kPa) of 1310.1 ± 2.4 m/s, a speed of sound (313.16 K, 101330 kPa) of 1330 ± 2.4 m/s and a speed of sound (313.17 K, 45610 kPa) of 1212.3 ± 2.3 m/s. For the same compound, the speed of sound (313.18 K, 60800 kPa) was 1246.8 ± 2.4 m/s, the speed of sound (313.2 K, 15210 kPa) was 1135.8 ± 2.3 m/s and the speed of sound (313.2 K, 30410 kPa) was 1175.5 ± 2.3 m/s. It also gave a speed of sound (314.36 K, 100 kPa) of 1089.7 ± 1.2 m/s.
Work on `BrCCCBr` [1,3-dibromopropane] yielded a mass density (292.55 K) of 1980.22 ± 1.2 kg/m3, a speed of sound (292.66 K, 100 kPa) of 1078.9 ± 1.2 m/s and a speed of sound (292.72 K, 15200 kPa) of 1114.4 ± 2.3 m/s. The speed of sound (292.78 K, 30400 kPa) was 1148.6 ± 2.3 m/s, the speed of sound (292.79 K, 45600 kPa) was 1180.5 ± 2.3 m/s and the speed of sound (292.8 K, 60810 kPa) was 1210.8 ± 2.3 m/s. For the same compound, the speed of sound (292.8 K, 91220 kPa) was 1265.8 ± 2.4 m/s, the speed of sound (292.82 K, 76010 kPa) was 1239.1 ± 2.4 m/s and the speed of sound (292.83 K, 101350 kPa) was 1283 ± 2 m/s. It also gave a mass density (297.98 K) of 1970.22 ± 1.2 kg/m3, a speed of sound (298.03 K, 76000 kPa) of 1227.5 ± 2.4 m/s and a speed of sound (298.04 K, 45600 kPa) of 1167.8 ± 2.3 m/s. The speed of sound (298.04 K, 60810 kPa) was 1198.5 ± 2.4 m/s, the speed of sound (298.04 K, 91210 kPa) was 1255 ± 2.4 m/s and the speed of sound (298.05 K, 30400 kPa) was 1135.1 ± 2.3 m/s. The speed of sound (298.07 K, 15210 kPa) was 1100.1 ± 2.3 m/s, the speed of sound (298.08 K, 101330 kPa) was 1272.4 ± 2.4 m/s and the speed of sound (298.61 K, 100 kPa) was 1062.6 ± 1.2 m/s. For the same compound, the speed of sound (302.95 K, 15210 kPa) was 1087.4 ± 2.3 m/s, the speed of sound (302.95 K, 30410 kPa) was 1123 ± 2.3 m/s and the speed of sound (302.95 K, 45600 kPa) was 1156.1 ± 2.3 m/s. For the same compound, the speed of sound (302.95 K, 60790 kPa) was 1187.2 ± 2.3 m/s, the speed of sound (302.95 K, 76010 kPa) was 1216.7 ± 2.4 m/s and the speed of sound (302.95 K, 91220 kPa) was 1244.5 ± 2.4 m/s. The speed of sound (302.95 K, 101350 kPa) was 1262.3 ± 2.4 m/s, the mass density (303.07 K) was 1961.58 ± 1.2 kg/m3 and the speed of sound (303.58 K, 100 kPa) was 1049 ± 1.2 m/s. For the same compound, the mass density (308.02 K) was 1952.84 ± 1.2 kg/m3, the speed of sound (308.04 K, 76010 kPa) was 1205.6 ± 2.4 m/s and the speed of sound (308.04 K, 91210 kPa) was 1233.7 ± 2.4 m/s. The speed of sound (308.04 K, 101350 kPa) was 1251.8 ± 2.4 m/s, the speed of sound (308.05 K, 15210 kPa) was 1074.3 ± 2.3 m/s and the speed of sound (308.05 K, 30410 kPa) was 1110.5 ± 2.3 m/s. For the same compound, the speed of sound (308.05 K, 45620 kPa) was 1144.2 ± 2.3 m/s, the speed of sound (308.05 K, 60820 kPa) was 1175.8 ± 2.3 m/s and the speed of sound (308.67 K, 100 kPa) was 1035.3 ± 1.2 m/s. It also gave a speed of sound (313.41 K, 15230 kPa) of 1060.7 ± 2.3 m/s, a speed of sound (313.41 K, 30410 kPa) of 1097.5 ± 2.3 m/s and a speed of sound (313.41 K, 45610 kPa) of 1131.7 ± 2.3 m/s. The speed of sound (313.41 K, 60800 kPa) was 1163.8 ± 2.4 m/s, the speed of sound (313.41 K, 76010 kPa) was 1194 ± 2.4 m/s and the speed of sound (313.42 K, 91200 kPa) was 1222.6 ± 2.4 m/s. For the same compound, the speed of sound (313.42 K, 101330 kPa) was 1240.8 ± 2.4 m/s, the mass density (314.58 K) was 1941.18 ± 1.2 kg/m3 and the speed of sound (314.7 K, 100 kPa) was 1019 ± 1.2 m/s.
